Laboratory results published in US12522596B2, “Compounds as GLP-1R agonists” (Terns Pharmaceuticals, Inc., priority 2021, dated 2026).

Tested on: human hepatocytes
Experiment: Metabolic stability in human hepatocytes
Type: in vitro ADME
Details: human
Procedure, shortened: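 Compounds at 1 μM (0.1% DMSO) were incubated with 1×10^6 cells/mL cryopreserved rat or human hepatocytes in DMEM at 37°C for 0–240 min. Parent remaining was measured by LC-MS/MS; k from semi-log decline gave t1/2 and CLint, with CLhep predicted by the well-stirred model.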

N#Cc1ccc(COc2cccc(N3CCN(Cc4nc5ccc(C(=O)O)cc5n4Cc4cncs4)CC3)n2)c(F)c1 [Compound 30]
CLint relative to reference: no significant difference
half-life relative to standard: no significant difference
